# Laboratory results: patent US9981945B2, “Pyrimidine derivatives as CFTR modulators” (NuBridge BioSciences, priority 2015, dated 2018)
# Counter-ions that a name gives are not always drawn.
# Biological target: T1, ΔF508 mutant CFTR (Homo sapiens, UniProt P13569, DEL508-508)
# T1 construct: expressed in transfected cells; host or cells: Fischer rat thyroid (FRT) cells
# Assay: Fluorescence (YFP halide quenching) assay of ΔF508 mutant CFTR activity in FRT cells
# Assay type: cell-based
# Set-up: key: fold of mean activity with forskolin alone (I− quenching rate)
# Conditions: FRT cells expressing ΔF508-CFTR and YFP-H148Q/I152L, rescued at 27° C. 20-24 h; forskolin 20 μM + test compound 20 μM for 20 min; I− influx rate normalized to forskolin alone
# Source text: The ΔF508 mutant CFTR activities of the CFTR modulators are detected using the Fluorescence Assay developed by Pedemonte (Pedemonte N., et al., Antihypertensive 1,4-dihydropyridines as correctors of the cystic fibrosis transmembrane conductance regulator channel gating defect caused by cystic fibrosis mutations, Mol. Pharmacol., 2005, 68, 1736-1746).
# Fischer rat thyroid (FRT) cells, stably transfected with ΔF508 were retransfected with the YFP-H148Q/I152L fluorescent protein. The cells were plated (100,000 cells/well) on black 96-well microplates with clear plastic bottom (Corning Life Sciences, Acton, Mass.).
# The 96-well microplates containing FRT cells expressing F508-CFTR and the halide-sensitive YFP were incubated at 27° C. for 20 to 24 h to allow rescue of the mutant protein to the plasma membrane. After incubation, cells were washed with PBS (containing 137 mM NaCl, 2.7 mM KCl, 8.1 mM Na2HPO4, 1.5 mM KH2PO4, 1 mM CaCl2, and 0.5 mM MgCl2) and stimulated for 20 min with forskolin (20 μM) and test compounds (20 μM) in a final volume of 60 μl. Microplates were then transferred to a microplate reader for CFTR activity determination. Each assay consisted of a continuous 14-s fluorescence reading (5 points per second) with 2 s before and 12 s after injection of 165 μl of an iodide-containing solution (PBS with Cl^− replaced by I^−). Final iodide concentration in the wells was 100 mM. […] To determine I^− influx rate, the final 11 s of the data for each well were fitted with an exponential function to extrapolate initial slope. CFTR activity was determined by measuring the rate of fluorescence quenching induced by extracellular addition of I^−. Data are normalized to the mean activity measured in the presence of forskolin alone.
# T1 sequence (P13569 with tags, fused parts or gaps DEL508-508): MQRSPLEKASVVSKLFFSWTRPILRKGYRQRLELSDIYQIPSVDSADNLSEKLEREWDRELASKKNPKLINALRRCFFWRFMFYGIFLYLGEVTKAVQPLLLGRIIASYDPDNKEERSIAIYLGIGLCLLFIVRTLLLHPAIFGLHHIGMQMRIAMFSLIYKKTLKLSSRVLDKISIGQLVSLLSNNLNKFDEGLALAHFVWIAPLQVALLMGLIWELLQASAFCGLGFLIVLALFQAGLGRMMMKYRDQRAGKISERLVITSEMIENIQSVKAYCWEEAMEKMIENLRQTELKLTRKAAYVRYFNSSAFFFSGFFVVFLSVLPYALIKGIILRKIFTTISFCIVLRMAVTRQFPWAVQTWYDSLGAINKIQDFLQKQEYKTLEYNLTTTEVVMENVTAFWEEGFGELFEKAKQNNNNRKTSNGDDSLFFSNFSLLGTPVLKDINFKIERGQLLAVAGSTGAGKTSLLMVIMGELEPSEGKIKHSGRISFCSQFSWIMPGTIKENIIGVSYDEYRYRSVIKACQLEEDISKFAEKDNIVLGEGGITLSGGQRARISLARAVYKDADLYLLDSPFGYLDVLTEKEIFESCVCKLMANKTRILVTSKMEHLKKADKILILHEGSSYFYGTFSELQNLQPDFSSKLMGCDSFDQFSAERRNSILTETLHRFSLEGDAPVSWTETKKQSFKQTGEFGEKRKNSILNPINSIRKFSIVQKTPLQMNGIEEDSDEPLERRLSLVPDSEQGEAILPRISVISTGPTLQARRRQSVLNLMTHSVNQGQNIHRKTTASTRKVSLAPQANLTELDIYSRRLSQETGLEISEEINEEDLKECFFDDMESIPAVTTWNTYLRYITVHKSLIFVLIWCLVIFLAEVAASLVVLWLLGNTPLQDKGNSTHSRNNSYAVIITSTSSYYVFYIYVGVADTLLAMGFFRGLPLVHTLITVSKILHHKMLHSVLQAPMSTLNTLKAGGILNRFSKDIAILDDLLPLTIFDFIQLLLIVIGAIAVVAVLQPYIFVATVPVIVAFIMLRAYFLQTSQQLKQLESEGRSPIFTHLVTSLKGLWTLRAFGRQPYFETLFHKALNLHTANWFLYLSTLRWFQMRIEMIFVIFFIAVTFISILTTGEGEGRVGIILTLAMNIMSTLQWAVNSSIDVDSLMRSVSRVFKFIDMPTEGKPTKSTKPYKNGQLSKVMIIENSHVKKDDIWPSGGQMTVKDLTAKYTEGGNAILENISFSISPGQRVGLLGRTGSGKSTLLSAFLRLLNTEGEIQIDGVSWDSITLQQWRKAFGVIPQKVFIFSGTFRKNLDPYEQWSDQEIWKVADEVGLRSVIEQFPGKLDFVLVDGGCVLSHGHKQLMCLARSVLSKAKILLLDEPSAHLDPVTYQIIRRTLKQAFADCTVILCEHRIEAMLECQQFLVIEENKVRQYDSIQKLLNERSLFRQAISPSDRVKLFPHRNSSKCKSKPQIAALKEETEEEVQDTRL
row,CFTR Activity,Structure (SMILES)
1,4.4,"Cl.NCC(CCl)COc1ncncc1NC(=O)c1nc(-c2c(F)cccc2F)c(C(F)(F)F)cc1N (centres unmarked) [Example 55, 3-amino-N-(4-(3-amino-2-(chloromethyl)propoxy)pyrimidin-5-yl)-6-(2,6-difluorophenyl)-5-(trifluoromethyl)picolinamide hydrochloride]"
2,0.5,"Cl.O=C(Nc1cncnc1OCC1CNC1)c1ccc(F)c(-c2c(F)cccc2F)n1 [Example 2, N-(4-(azetidin-3-ylmethoxy)pyrimidin-5-yl)-6-(2,6-difluorophenyl)-5-fluoropicolinamide hydrochloride]"
3,1.0,"Cl.Nc1cc(F)c(-c2c(F)cccc2F)nc1C(=O)Nc1cncnc1OCC1CNC1 [Example 32, 3-amino-N-(4-(azetidin-3-ylmethoxy)pyrimidin-5-yl)-6-(2,6-difluorophenyl)-5-fluoropicolinamide hydrochloride]"
4,4.3,"Cl.Nc1cc(C(F)(F)F)c(-c2c(F)cccc2F)nc1C(=O)Nc1cncnc1O[C@H]1CC[C@H](N)CC1 [Example 52, 3-amino-N-(4-(((1r,4r)-4-aminocyclohexyl)oxy)pyrimidin-5-yl)-6-(2,6-difluorophenyl)-5-(trifluoromethyl)picolinamide hydrochloride]"
5,2.9,"Cl.Nc1cc(C(F)(F)F)c(-c2c(F)cccc2F)nc1C(=O)Nc1cncnc1OCC1CNC1 [Example 50, 3-amino-N-(4-(azetidin-3-ylmethoxy)pyrimidin-5-yl)-6-(2,6-difluorophenyl)-5-(trifluoromethyl)picolinamide hydrochloride]"
6,4.1,"Cl.Nc1cc(F)c(-c2c(F)cccc2F)nc1C(=O)Nc1cncnc1OC1CCCC(N)C1 (centres unmarked) [Example 37, 3-amino-N-(4-((3-aminocyclohexyl)oxy)pyrimidin-5-yl)-6-(2,6-difluorophenyl)-5-fluoropicolinamide]"
7,1.9,"Cl.Nc1cc(F)c(-c2c(F)cccc2F)nc1C(=O)Nc1cncnc1OC1CCNC1 (centres unmarked) [Example 24, 3-amino-6-(2,6-difluorophenyl)-5-fluoro-N-(4-(pyrrolidin-3-yloxy)pyrimidin-5-yl)picolinamide hydrochloride]"
8,2.2,"Cl.Nc1cc(F)c(-c2c(F)cccc2F)nc1C(=O)Nc1cncnc1OCC1CCNCC1 [Example 23, 3-amino-6-(2,6-difluorophenyl)-5-fluoro-N-(4-(piperidin-4-ylmethoxy)pyrimidin-5-yl)picolinamide hydrochloride]"
9,2.2,"Cl.NCC(CCl)Oc1ncncc1NC(=O)c1nc(-c2c(F)cccc2F)c(F)cc1N (centres unmarked) [Example 33, 3-amino-N-(4-((1-amino-3-chloropropan-2-yl)oxy)pyrimidin-5-yl)-6-(2,6-difluorophenyl)-5-fluoropicolinamide hydrochloride]"
10,0.1,"O=C(Nc1cncnc1OCC1CCOCC1)c1ccc(C(F)(F)F)c(-c2c(F)cccc2F)n1 [Example 47, 6-(2,6-difluorophenyl)-N-(4-((tetrahydro-2H-pyran-4-yl)methoxy)pyrimidin-5-yl)-5-(trifluoromethyl)picolinamide]"
11,2.1,"Cl.Nc1cc(F)c(-c2c(F)cccc2F)nc1C(=O)Nc1cncnc1OCC1CCCNC1 (centres unmarked) [Example 35, 3-amino-6-(2,6-difluorophenyl)-5-fluoro-N-(4-(piperidin-3-ylmethoxy)pyrimidin-5-yl)picolinamide hydrochloride]"
12,4.0,"Cl.Nc1cc(C(F)(F)F)c(-c2c(F)cccc2F)nc1C(=O)Nc1cncnc1OC1CCNCC1 [Example 51, 3-amino-6-(2,6-difluorophenyl)-N-(4-(piperidin-4-yloxy)pyrimidin-5-yl)-5-(trifluoromethyl)picolinamide hydrochloride]"
13,3.2,"Cl.Nc1cc(C(F)(F)F)c(-c2c(F)cccc2F)nc1C(=O)Nc1cncnc1OCC1CCNCC1 [Example 49, 3-amino-6-(2,6-difluorophenyl)-N-(4-(piperidin-4-ylmethoxy)pyrimidin-5-yl)-5-(trifluoromethyl)picolinamide hydrochloride]"
14,2.7,"Cl.O=C(Nc1cncnc1OC1CCNCC1)c1ccc(C(F)(F)F)c(-c2c(F)cccc2F)n1 [Example 45, 6-(2,6-difluorophenyl)-N-(4-(piperidin-4-yloxy)pyrimidin-5-yl)-5-(trifluoromethyl)picolinamide hydrochloride]"
15,4.4,"Cl.Nc1cc(F)c(-c2c(F)cccc2F)nc1C(=O)Nc1cncnc1OC1CCC(N)CC1 (centres unmarked) [Example 27, 3-amino-N-(4-(((1r,4r)-4-aminocyclohexyl)oxy)pyrimidin-5-yl)-6-(2,6-difluorophenyl)-5-fluoropicolinamide hydrochloride]"
16,4.2,"Cl.Nc1cc(C(F)(F)F)c(-c2c(F)cccc2F)nc1C(=O)Nc1cncnc1OC1CCCC(N)C1 (centres unmarked) [Example 61, 3-amino-N-(4-((3-aminocyclohexyl)oxy)pyrimidin-5-yl)-6-(2,6-difluorophenyl)-5-(trifluoromethyl)picolinamide hydrochloride]"
17,3.0,"Cl.NCC(CO)COc1ncncc1NC(=O)c1nc(-c2c(F)cccc2F)c(C(F)(F)F)cc1N (centres unmarked) [Example 59, 3-amino-N-(4-(3-amino-2-(hydroxymethyl)propoxy)pyrimidin-5-yl)-6-(2,6-difluorophenyl)-5-(trifluoromethyl)picolinamide hydrochloride]"

# Further lines, the molecule ahead of its results:
row,Structure (SMILES),CFTR Activity
1,"Cl.NCCCCOc1ncncc1NC(=O)c1ccc(F)c(-c2c(F)cccc2F)n1 [Example 15, N-(4-(4-aminobutoxy)pyrimidin-5-yl)-6-(2,6-difluorophenyl)-5-fluoropicolinamide hydrochloride]",0.5
2,"Cl.O=C(Nc1cncnc1OC1CCCNCC1)c1nc(-c2c(F)cccc2F)ccc1F (centres unmarked) [Example 40, N-(4-(azepan-4-yloxy)pyrimidin-5-yl)-6-(2,6-difluorophenyl)-3-fluoropicolinamide hydrochloride]",1.9
3,"Cl.O=C(Nc1cncnc1OC1CNC1)c1ccc(F)c(-c2c(F)cccc2F)n1 [Example 9, N-(4-(azetidin-3-yloxy)pyrimidin-5-yl)-6-(2,6-difluorophenyl)-5-fluoropicolinamide hydrochloride]",0.4
4,"Cl.O=C(Nc1cncnc1OC1CCCNCC1)c1ccc(F)c(-c2c(F)cccc2F)n1 (centres unmarked) [Example 6, N-(4-(azepan-4-yloxy)pyrimidin-5-yl)-6-(2,6-difluorophenyl)-5-fluoropicolinamide hydrochloride]",1.9
5,"O=C(Nc1cncnc1OCCCCO)c1ccc(F)c(-c2c(F)cccc2F)n1 [Example 19, 6-(2,6-difluorophenyl)-5-fluoro-N-(4-(4-hydroxybutoxy)pyrimidin-5-yl)picolinamide]",0.3
6,"NCC(CCl)Oc1ncncc1NC(=O)c1ccc(F)c(-c2c(F)cccc2F)n1 (centres unmarked) [Example 29, N-(4-((1-amino-3-chloropropan-2-yl)oxy)pyrimidin-5-yl)-6-(2,6-difluorophenyl)-5-fluoropicolinamide hydrochloride]",1.8
7,"Cl.O=C(Nc1cncnc1OC1CCNCC1)c1ccc(F)c(-c2ccncc2)n1 [Example 39, 3-fluoro-N-(4-(piperidin-4-yloxy)pyrimidin-5-yl)-[2,4′-bipyridine]-6-carboxamide hydrochloride]",0.5
8,"CC(C)(O)CCCOc1ncncc1NC(=O)c1ccc(F)c(-c2c(F)cccc2F)n1 [Example 20, 6-(2,6-difluorophenyl)-5-fluoro-N-(4-((4-hydroxy-4-methylpentyl)oxy)pyrimidin-5-yl)picolinamide]",0.1
9,"CNCCCOc1ncncc1NC(=O)c1ccc(F)c(-c2c(F)cccc2F)n1.Cl [Example 13, 6-(2,6-difluorophenyl)-5-fluoro-N-(4-(3-(methylamino)propoxy)pyrimidin-5-yl)picolinamide hydrochloride]",0.5
10,"Cl.N[C@H]1CC[C@H](Oc2ncncc2NC(=O)c2ccc(C(F)(F)F)c(-c3c(F)cccc3F)n2)CC1 [Example 46, N-(4-(((1r,4r)-4-aminocyclohexyl)oxy)pyrimidin-5-yl)-6-(2,6-difluorophenyl)-5-(trifluoromethyl)picolinamide hydrochloride]",3.2
11,"Cl.Nc1cc(F)c(-c2ccccc2)nc1C(=O)Nc1cncnc1OC1CCNC1 (centres unmarked) [Example 38, 3-amino-5-fluoro-6-phenyl-N-(4-(pyrrolidin-3-yloxy)pyrimidin-5-yl)picolinamide hydrochloride]",1.1
12,"Cl.O=C(Nc1cncnc1OC1CCCNCC1)c1ccc(C(F)(F)F)c(-c2c(F)cccc2F)n1 (centres unmarked) [Example 42, N-(4-(azepan-4-yloxy)pyrimidin-5-yl)-6-(2,6-difluorophenyl)-5-(trifluoromethyl)picolinamide hydrochloride]",2.4
